For three compounds, inhibition, Activity and IC50 results are on record in ChEMBL document CHEMBL2069275, “Phenolic compounds as antiangiogenic CMG2 inhibitors from Costa Rican endophytic fungi” (Bioorg Med Chem Lett, 2012).

Series [1] has as its system Anthrax toxin receptor 2 (Homo sapiens), P58335 [R40C]. Briefly: (§1) Inhibition of AF546-tagged CMG2 R40C mutant binding to AF488-tagged PA E733C mutant incubated for 1 to 3 hrs prior to AF488-tagged PA E733C addition measured after 3 to 4 hrs by FRET assay.
Series [2] in a line: Antiangiogenic activity against human HMVEC at 156 uM after 4 hrs by Diff-Quick staining relative to control. The series is classed as functional.
A short description of series [3]: Antiangiogenic activity against human HMVEC at 52 uM after 4 hrs by Diff-Quick staining relative to control. The series is classed as functional.
Series [4] is described as follows: Antiproliferative activity against human HMVEC at 156 uM after 24 to 72 hrs by Cyquant-based fluorimetry relative to control.
Series [5] is described as follows: Antiproliferative activity against human HMVEC at 52 uM after 24 to 72 hrs by Cyquant-based fluorimetry relative to control.
The target in series [6] is Anthrax toxin receptor 2 (Homo sapiens, UniProt P58335, R40C). Described as §1.
Chain of Anthrax toxin receptor 2 (P58335 whole entry R40C): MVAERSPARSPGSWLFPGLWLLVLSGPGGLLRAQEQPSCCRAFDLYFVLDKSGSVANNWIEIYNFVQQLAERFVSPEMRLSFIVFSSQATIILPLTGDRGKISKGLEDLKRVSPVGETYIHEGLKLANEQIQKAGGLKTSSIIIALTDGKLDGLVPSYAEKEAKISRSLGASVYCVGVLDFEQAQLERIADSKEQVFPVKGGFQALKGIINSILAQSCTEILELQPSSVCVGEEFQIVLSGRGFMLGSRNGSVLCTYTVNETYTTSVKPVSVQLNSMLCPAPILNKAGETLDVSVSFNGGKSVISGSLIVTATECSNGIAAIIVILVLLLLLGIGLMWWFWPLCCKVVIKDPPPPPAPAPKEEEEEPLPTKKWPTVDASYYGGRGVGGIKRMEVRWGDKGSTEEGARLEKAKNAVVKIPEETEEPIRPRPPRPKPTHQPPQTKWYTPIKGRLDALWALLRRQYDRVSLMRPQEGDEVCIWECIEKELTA
In series [7] the test system is HMVEC. Briefly: Antiangiogenic activity against human HMVEC at 117 uM after 4 hrs by Diff-Quick staining relative to control. The class given is functional.
A short description of series [8]: Antiproliferative activity against human HMVEC at 39 uM after 24 to 72 hrs by Cyquant-based fluorimetry relative to control.
In series [9] the test system is HMVEC. Briefly: Antiangiogenic activity against human HMVEC at 39 uM after 4 hrs by Diff-Quick staining relative to control. The class given is functional.
Series [10] is described as follows: Antiproliferative activity against human HMVEC at 117 uM after 24 to 72 hrs by Cyquant-based fluorimetry relative to control.

Active and inactive are the calls of the source. No cut-off for these calls is given here.

Chain of Anthrax toxin receptor 2 (Homo sapiens), P58335 [R40C] (P58335 whole entry R40C): as above

Consider `COc1cccc2c1c(OC)cc1cc(C)c(=O)oc12`, for which the inhibition result in series [1] was “inactive”.
On to `Cc1cc2cc(O)cc(O)c2c(=O)o1`, for which the Activity is listed as 93.1% in series [2], 96% in series [3], “Non-toxic” in [4] and “Non-toxic” in series [5].
`COc1cccc2c1c(O)cc1cc(C)c(=O)oc12` registered an IC50 in series [6] of 0.5 µM. Besides, the result in series [7] and in [9] was inactive. Moreover, the Activity result in [8] and in series [10] was “Toxic” each time.

As usually defined, the IC50 is the point on the concentration scale where inhibition reaches its midpoint. A lower IC50 goes with inhibition by little substance.
